From patent publication US10669256B2, “Crystalline forms of lasmiditan, preparation methods, pharmaceutical compositions and uses thereof” (priority 2016, dated 2020)
“Also recorded” adds a separate entry of the source. Counter-ions that a name gives are not always drawn.

Key:
[1] = Dynamic vapor sorption / isothermal sorption (hygroscopicity); format: physicochemical; settings: for weight change (isothermal sorption plot): between 0 to 80% RH; for weight change (DVS isothermal sorption plot): between 20 to 80% RH
Procedure: Dynamic vapor sorption data and isothermal sorption data were collected on TA Instruments Q5000 TGA. Method: A sample of 1 to 10 mg was placed in a platinum pan; the weight change of the sample during the change in relative humidity from 0% to 80% to 0% was measured.

[2] = Solid state stability experiment (XRD after storage at room temperature under dry condition); format: physicochemical; settings: for 1 day test results (solid form by XRD): stored 1 day; for 10 days test results (solid form by XRD): stored 10 days
Procedure: X-ray powder diffraction (XRPD): performed on Bruder D8 Advance diffractometer. Samples were tested at room temperature. Testing conditions: […] 3-40°, step size 0.02°, and speed 0.2 s/step.
Solid state stability experiment: Placed 20 mg of each of lasmiditan amorphous form of preparation Example 1, lasmiditan hydrochloride amorphous of Preparation Example 2, lasmiditan Form 1, lasmiditan Form 2, lasmiditan Form 3, lasmiditan hydrochloride Form A, lasmiditan hydrochloride Form B, lasmiditan hydrochloride Form C, and lasmiditan hydrochloride Form E of the present invention at room temperature under dry condition, took the samples out and analyzed by XRD at the corresponding time, their XRD pattern are shown in FIGS. 16-18 and FIGS. 46-50.

SMILES | weight change (isothermal sorption plot) [1] | weight change (DVS isothermal sorption plot) [1] | 1 day test results (solid form by XRD) [2] | 10 days test results (solid form by XRD) [2] | weight change (isothermal sorption plot) ([1]; hydrochloride) | 1 day test results (solid form by XRD) ([2]; hydrochloride) | 10 days test results (solid form by XRD) ([2]; hydrochloride) | also measured
CN1CCC(C(=O)c2cccc(NC(=O)c3c(F)cc(F)cc3F)n2)CC1 [Lasmiditan Form 1, 2,4,6-trifluoro-N-[6-(1-methyl-piperidine-4-carbonyl)pyridin-2-yl]-benzamide] | 0.1% | 0.1% | Form 1 | Form 1 | – | – | – | 10 days test results (solid form by XRD) ([2]; listed as lasmiditan Form 1): remained unchanged; also recorded: still remained their original forms
CN1CCC(C(=O)c2cccc(NC(=O)c3c(F)cc(F)cc3F)n2)CC1 [Lasmiditan Form 2, 2,4,6-trifluoro-N-[6-(1-methyl-piperidine-4-carbonyl)pyridin-2-yl]-benzamide] | 0.1% | 0.1% | Form 2 | Form 2 | – | – | – | 10 days test results (solid form by XRD) ([2]; listed as lasmiditan Form 2): still remained their original forms; also recorded: remained unchanged
CN1CCC(C(=O)c2cccc(NC(=O)c3c(F)cc(F)cc3F)n2)CC1 [Lasmiditan Form 3, 2,4,6-trifluoro-N-[6-(1-methyl-piperidine-4-carbonyl)pyridin-2-yl]-benzamide] | 0.7% | – | Form 3 | Form 3 | – | – | – | 10 days test results (solid form by XRD) ([2]; listed as lasmiditan Form 3): still remained their original forms; also recorded: remained unchanged
CN1CCC(C(=O)c2cccc(NC(=O)c3c(F)cc(F)cc3F)n2)CC1 [Lasmiditan amorphous form, 2,4,6-trifluoro-N-[6-(1-methyl-piperidine-4-carbonyl)pyridin-2-yl]-benzamide, reference compound] | 9.5% | 9.5% | began to crystallize | – | – | – | – | weight change (isothermal sorption plot) ([1]; listed as Preparation Example 1): 9.5%
CN1CCC(C(=O)c2cccc(NC(=O)c3c(F)cc(F)cc3F)n2)CC1 [Lasmiditan hydrochloride Form A, lasmiditan hydrochloride] | – | – | – | – | 0.1% | Form A | Form A | 10 days test results (solid form by XRD) ([2]; listed as lasmiditan hydrochloride Form A, hydrochloride): remained unchanged; also recorded: still remained their original forms
CN1CCC(C(=O)c2cccc(NC(=O)c3c(F)cc(F)cc3F)n2)CC1 [Lasmiditan hydrochloride Form B, lasmiditan hydrochloride] | – | – | – | – | 4.2% | Form B | Form B | 10 days test results (solid form by XRD) ([2]; listed as lasmiditan hydrochloride Form B, hydrochloride): remained unchanged; also recorded: still remained their original forms
CN1CCC(C(=O)c2cccc(NC(=O)c3c(F)cc(F)cc3F)n2)CC1 [Lasmiditan hydrochloride Form C, lasmiditan hydrochloride] | – | – | – | – | 0.9% | Form C | Form C | 10 days test results (solid form by XRD) ([2]; listed as lasmiditan hydrochloride Form C, hydrochloride): remained unchanged; also recorded: still remained their original forms
CN1CCC(C(=O)c2cccc(NC(=O)c3c(F)cc(F)cc3F)n2)CC1 [Lasmiditan hydrochloride Form E, lasmiditan hydrochloride] | – | – | – | – | – | Change to Form A | – | 1 day test results (solid form by XRD) ([2]; listed as lasmiditan hydrochloride Form E, hydrochloride): converted to Form A
CN1CCC(C(=O)c2cccc(NC(=O)c3c(F)cc(F)cc3F)n2)CC1 [Lasmiditan hydrochloride amorphous form, lasmiditan hydrochloride, reference compound] | – | – | – | – | 8.1% | began to crystallize | – | weight change (isothermal sorption plot) ([1]; listed as Preparation Example 2, hydrochloride): 8.1%
